These molecules were tested on 454973-116-R2-J3-PDC spheroids, viability, % test/control (assay: Anticancer human tumor 454973-116-R2-J3-PDC patient-derived pancreatic carcinoma cell line growth inhibition [GQUAD]). Conditions: second compound 0.0316 µM; first compound 3.16 µM; stronger effect = lower value; spheroids with HUVEC and MSC.
How it was run: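 Tumor cells were grown as complex spheroids with HUVEC endothelial cells and mesenchymal stem cells as stroma. G-quadruplex stabilizers were combined with targeted agents over half-log dilutions from near the clinical Cmax, or from 10 microM.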
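Note: spheroids exposed to compounds for seven days; 100% = DMSO vehicle control viability.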

Structure (SMILES)	viability, T/C [%]
C#Cc1c(F)ccc2cc(O)cc(-c3ncc4c(N5CC6CCC(C5)N6)nc(OCC56CCCN5CC(F)C6)nc4c3F)c12 (stereo unspecified) + Cc1cnc(CNC(=O)c2c(=O)c3ccc(N4CCCN(C)CC4)nc3n3c2sc2ccccc23)cn1	20.3
C=CCn1c(=O)c2cnc(Nc3ccc(N4CCN(C)CC4)cc3)nc2n1-c1cccc(C(C)(C)O)n1 + Cc1cnc(CNC(=O)c2c(=O)c3ccc(N4CCCN(C)CC4)nc3n3c2sc2ccccc23)cn1	6.73
CC(C)(O)C1CCC(Nc2ccc3ncc(-c4cccc(C(F)(F)F)c4)n3n2)CC1 (stereo unspecified) + Cc1cnc(CNC(=O)c2c(=O)c3ccc(N4CCCN(C)CC4)nc3n3c2sc2ccccc23)cn1	21.5
O=C(NO)c1cnc(N2CCN(S(=O)(=O)c3ccc4ccccc4c3)CC2)nc1 + Cc1cnc(CNC(=O)c2c(=O)c3ccc(N4CCCN(C)CC4)nc3n3c2sc2ccccc23)cn1	0.09

Same assay, conditions: second compound 0.0316 µM; first compound 10 µM; stronger effect = lower value; spheroids with HUVEC and MSC

Structure (SMILES)	viability, T/C [%]
C#Cc1c(F)ccc2cc(O)cc(-c3ncc4c(N5CC6CCC(C5)N6)nc(OCC56CCCN5CC(F)C6)nc4c3F)c12 (stereo unspecified) + Cc1cnc(CNC(=O)c2c(=O)c3ccc(N4CCCN(C)CC4)nc3n3c2sc2ccccc23)cn1	17.8
C=CCn1c(=O)c2cnc(Nc3ccc(N4CCN(C)CC4)cc3)nc2n1-c1cccc(C(C)(C)O)n1 + Cc1cnc(CNC(=O)c2c(=O)c3ccc(N4CCCN(C)CC4)nc3n3c2sc2ccccc23)cn1	10.2
CC(C)(O)C1CCC(Nc2ccc3ncc(-c4cccc(C(F)(F)F)c4)n3n2)CC1 (stereo unspecified) + Cc1cnc(CNC(=O)c2c(=O)c3ccc(N4CCCN(C)CC4)nc3n3c2sc2ccccc23)cn1	23.8
O=C(NO)c1cnc(N2CCN(S(=O)(=O)c3ccc4ccccc4c3)CC2)nc1 + Cc1cnc(CNC(=O)c2c(=O)c3ccc(N4CCCN(C)CC4)nc3n3c2sc2ccccc23)cn1	0.11

Same assay, conditions: second compound 0.1 µM; first compound 0.000999 µM; stronger effect = lower value; spheroids with HUVEC and MSC

Structure (SMILES)	viability, T/C [%]
Cc1[nH]c2ccccc2c1CCNCc1ccc(/C=C/C(=O)NO)cc1 + Cc1cnc(CNC(=O)c2c(=O)c3ccc(N4CCCN(C)CC4)nc3n3c2sc2ccccc23)cn1	84.4

Same assay, conditions: second compound 0.1 µM; first compound 0.00316 µM; stronger effect = lower value; spheroids with HUVEC and MSC

Structure (SMILES)	viability, T/C [%]
Cc1[nH]c2ccccc2c1CCNCc1ccc(/C=C/C(=O)NO)cc1 + Cc1cnc(CNC(=O)c2c(=O)c3ccc(N4CCCN(C)CC4)nc3n3c2sc2ccccc23)cn1	74.9

Same assay, conditions: second compound 0.1 µM; first compound 0.00999 µM; stronger effect = lower value; spheroids with HUVEC and MSC

Structure (SMILES)	viability, T/C [%]
Cc1[nH]c2ccccc2c1CCNCc1ccc(/C=C/C(=O)NO)cc1 + Cc1cnc(CNC(=O)c2c(=O)c3ccc(N4CCCN(C)CC4)nc3n3c2sc2ccccc23)cn1	79.2

Same assay, conditions: second compound 0.1 µM; first compound 0.0316 µM; stronger effect = lower value; spheroids with HUVEC and MSC

Structure (SMILES)	viability, T/C [%]
C#Cc1c(F)ccc2cc(O)cc(-c3ncc4c(N5CC6CCC(C5)N6)nc(OCC56CCCN5CC(F)C6)nc4c3F)c12 (stereo unspecified) + Cc1cnc(CNC(=O)c2c(=O)c3ccc(N4CCCN(C)CC4)nc3n3c2sc2ccccc23)cn1	41.9
C=CCn1c(=O)c2cnc(Nc3ccc(N4CCN(C)CC4)cc3)nc2n1-c1cccc(C(C)(C)O)n1 + Cc1cnc(CNC(=O)c2c(=O)c3ccc(N4CCCN(C)CC4)nc3n3c2sc2ccccc23)cn1	76.5
CC(C)(O)C1CCC(Nc2ccc3ncc(-c4cccc(C(F)(F)F)c4)n3n2)CC1 (stereo unspecified) + Cc1cnc(CNC(=O)c2c(=O)c3ccc(N4CCCN(C)CC4)nc3n3c2sc2ccccc23)cn1	83.3
Cc1[nH]c2ccccc2c1CCNCc1ccc(/C=C/C(=O)NO)cc1 + Cc1cnc(CNC(=O)c2c(=O)c3ccc(N4CCCN(C)CC4)nc3n3c2sc2ccccc23)cn1	69.8
O=C(NO)c1cnc(N2CCN(S(=O)(=O)c3ccc4ccccc4c3)CC2)nc1 + Cc1cnc(CNC(=O)c2c(=O)c3ccc(N4CCCN(C)CC4)nc3n3c2sc2ccccc23)cn1	87.1

Same assay, conditions: second compound 0.1 µM; first compound 0.0999 µM; stronger effect = lower value; spheroids with HUVEC and MSC

Structure (SMILES)	viability, T/C [%]
Cc1[nH]c2ccccc2c1CCNCc1ccc(/C=C/C(=O)NO)cc1 + Cc1cnc(CNC(=O)c2c(=O)c3ccc(N4CCCN(C)CC4)nc3n3c2sc2ccccc23)cn1	31.1

Same assay, conditions: second compound 0.1 µM; first compound 0.1 µM; stronger effect = lower value; spheroids with HUVEC and MSC

Structure (SMILES)	viability, T/C [%]
C#Cc1c(F)ccc2cc(O)cc(-c3ncc4c(N5CC6CCC(C5)N6)nc(OCC56CCCN5CC(F)C6)nc4c3F)c12 (stereo unspecified) + Cc1cnc(CNC(=O)c2c(=O)c3ccc(N4CCCN(C)CC4)nc3n3c2sc2ccccc23)cn1	33.3
C=CCn1c(=O)c2cnc(Nc3ccc(N4CCN(C)CC4)cc3)nc2n1-c1cccc(C(C)(C)O)n1 + Cc1cnc(CNC(=O)c2c(=O)c3ccc(N4CCCN(C)CC4)nc3n3c2sc2ccccc23)cn1	53.6
CC(C)(O)C1CCC(Nc2ccc3ncc(-c4cccc(C(F)(F)F)c4)n3n2)CC1 (stereo unspecified) + Cc1cnc(CNC(=O)c2c(=O)c3ccc(N4CCCN(C)CC4)nc3n3c2sc2ccccc23)cn1	83.8
O=C(NO)c1cnc(N2CCN(S(=O)(=O)c3ccc4ccccc4c3)CC2)nc1 + Cc1cnc(CNC(=O)c2c(=O)c3ccc(N4CCCN(C)CC4)nc3n3c2sc2ccccc23)cn1	68.6

Same assay, conditions: second compound 0.1 µM; first compound 0.316 µM; stronger effect = lower value; spheroids with HUVEC and MSC

Structure (SMILES)	viability, T/C [%]
C#Cc1c(F)ccc2cc(O)cc(-c3ncc4c(N5CC6CCC(C5)N6)nc(OCC56CCCN5CC(F)C6)nc4c3F)c12 (stereo unspecified) + Cc1cnc(CNC(=O)c2c(=O)c3ccc(N4CCCN(C)CC4)nc3n3c2sc2ccccc23)cn1	24
C=CCn1c(=O)c2cnc(Nc3ccc(N4CCN(C)CC4)cc3)nc2n1-c1cccc(C(C)(C)O)n1 + Cc1cnc(CNC(=O)c2c(=O)c3ccc(N4CCCN(C)CC4)nc3n3c2sc2ccccc23)cn1	29.8
CC(C)(O)C1CCC(Nc2ccc3ncc(-c4cccc(C(F)(F)F)c4)n3n2)CC1 (stereo unspecified) + Cc1cnc(CNC(=O)c2c(=O)c3ccc(N4CCCN(C)CC4)nc3n3c2sc2ccccc23)cn1	85.4
Cc1[nH]c2ccccc2c1CCNCc1ccc(/C=C/C(=O)NO)cc1 + Cc1cnc(CNC(=O)c2c(=O)c3ccc(N4CCCN(C)CC4)nc3n3c2sc2ccccc23)cn1	4.46
O=C(NO)c1cnc(N2CCN(S(=O)(=O)c3ccc4ccccc4c3)CC2)nc1 + Cc1cnc(CNC(=O)c2c(=O)c3ccc(N4CCCN(C)CC4)nc3n3c2sc2ccccc23)cn1	24.8
